Laboratory results from US20040023994A1 (priority 2002, published 2004).
Where two headings read alike, the source gives them in different places.

What was measured:
OVCAR-8 = conditions: OVCAR-8, Ovarian, NCI database, cited from earlier work
NCI/ADR-RES = conditions: Breast, NCI database, cited from earlier work
[1] = cited from earlier work
HT29 = conditions: HT29, Colon, NCI database, cited from earlier work
A549/ATCC [2] = conditions: Non-Small Cell Lung, NCI database, cited from earlier work
K-562 = conditions: K-562, Leukemia, NCI database, cited from earlier work
SF-268 [3] = conditions: SF-268, CNS, NCI database, cited from earlier work
SK-MEL-2 = conditions: SK-MEL-2, Melanoma, NCI database, cited from earlier work
PC-3 [4] = conditions: PC-3, Prostate, NCI database, cited from earlier work
HCT-15 = conditions: HCT-15, Colon, NCI database, cited from earlier work
SK-MEL-28 = conditions: SK-MEL-28, Melanoma, NCI database, cited from earlier work
SF-295 [5] = conditions: SF-295, CNS, NCI database, cited from earlier work
CAKI-1 = conditions: CAKI-1, Renal, NCI database, cited from earlier work
SW-620 = conditions: SW-620, Colon, NCI database, cited from earlier work
OVCAR-4 = conditions: OVCAR-4, Ovarian, NCI database, cited from earlier work
HOP-92 [6] = conditions: HOP-92, Non-Small Cell Lung, NCI database, cited from earlier work
MOLT-4 = conditions: for CC50: read-out: LC50
SNB-19 = conditions: for CC50: read-out: LC50
HOP-62 = conditions: for CC50: read-out: LC50
HOP-92 [7] = conditions: for CC50: read-out: LC50
OVCAR-5 = conditions: for CC50: read-out: LC50
SK-MEL-5 = conditions: for CC50: read-out: LC50
A549/ATCC [8] = conditions: for CC50: read-out: LC50
IGR-OV1 = conditions: for CC50: read-out: LC50
PC-3 [9] = type: cell-based; conditions: PC-3, Prostate, 48 h
SF-268 [10] = conditions: for CC50: read-out: LC50
SF-295 [11] = conditions: for CC50: read-out: LC50
[12] = read-out: LC50 (the source's name)
[13] = HOP-62, Non-Small Cell Lung, 48 h
[14] = HOP-92, Non-Small Cell Lung, 48 h
[15] = A549/ATCC, Non-Small Cell Lung, 48 h

Sc1ncnc2nc[nH]c12 [6-MP, 6-mercaptopurine]
GI50 (OVCAR-8): 2.44 µM
TGI (OVCAR-8): >100 µM
CC50 (OVCAR-8; [12]): > 100 µM
CC50 (NCI/ADR-RES; [12]): > 100 µM
GI50 (NCI/ADR-RES): 3.18 µM
TGI (NCI/ADR-RES): >100 µM
dose absorbed after oral administration [1]: ≤ 37%
GI50 (HT29): 3.97 µM
TGI (HT29): >100 µM
CC50 (HT29; [12]): > 100 µM
CC50 (A549/ATCC [2]; [12]): > 100 µM
GI50 (A549/ATCC [2]): 27.7 µM
TGI (A549/ATCC [2]): >100 µM
GI50 (K-562): 0.35 µM
TGI (K-562): >100 µM
CC50 (K-562; [12]): > 100 µM
GI50 (SF-268 [3]): 4.03 µM
TGI (SF-268 [3]): >100 µM
CC50 (SF-268 [3]; [12]): > 100 µM
GI50 (SK-MEL-2): 5.81 µM
TGI (SK-MEL-2): >100 µM
CC50 (SK-MEL-2; [12]): > 100 µM
GI50 (PC-3 [4]): 3.81 µM
TGI (PC-3 [4]): >100 µM
CC50 (PC-3 [4]; [12]): > 100 µM
GI50 (HCT-15): 4.38 µM
TGI (HCT-15): >100 µM
CC50 (HCT-15; [12]): > 100 µM
GI50 (SK-MEL-28): > 100 µM
TGI (SK-MEL-28): >100 µM
CC50 (SK-MEL-28; [12]): > 100 µM
GI50 (SF-295 [5]): 5.36 µM
TGI (SF-295 [5]): >100 µM
CC50 (SF-295 [5]; [12]): > 100 µM
GI50 (CAKI-1): 2.36 µM
TGI (CAKI-1): >100 µM
CC50 (CAKI-1; [12]): > 100 µM
GI50 (SW-620): 6.82 µM
TGI (SW-620): >100 µM
CC50 (SW-620; [12]): > 100 µM
GI50 (OVCAR-4): 7.11 µM
TGI (OVCAR-4): >100 µM
CC50 (OVCAR-4; [12]): > 100 µM
GI50 (HOP-92 [6]): 2.6 µM
TGI (HOP-92 [6]): >100 µM
CC50 (HOP-92 [6]; [12]): > 100 µM

CC(=O)C=CSc1ncnc2nc[nH]c12 [cis-AVTP, 6-(2-acetylvinylthio) purine]
GI50 (MOLT-4; Homo sapiens, MOLT-4, 48 h): 0.36 µM
CC50 (MOLT-4; Homo sapiens, MOLT-4, 48 h): > 100 µM
TGI (MOLT-4; MOLT-4, Leukemia, 48 h): >100 µM
GI50 (SNB-19; Homo sapiens, SNB-19, 48 h): 3.66 µM
CC50 (SNB-19; Homo sapiens, SNB-19, 48 h): 76.3 µM
TGI (SNB-19; SNB-19, CNS, 48 h): 18.2 µM
TGI (HOP-62; [13]): 21.2 µM
GI50 (HOP-62; Homo sapiens, HOP-62, 48 h): 0.4 µM
CC50 (HOP-62; Homo sapiens, HOP-62, 48 h): 88.9 µM
TGI (HOP-92 [7]; [14]): 5.45 µM
GI50 (HOP-92 [7]; Homo sapiens, HOP-92, 48 h): 1.69 µM
CC50 (HOP-92 [7]; Homo sapiens, HOP-92, 48 h): 32.9 µM
GI50 (OVCAR-5; Homo sapiens, OVCAR-5, 48 h): 1.31 µM
CC50 (OVCAR-5; Homo sapiens, OVCAR-5, 48 h): 6.57 µM
TGI (OVCAR-5; OVCAR-5, Ovarian, 48 h): 2.94 µM
GI50 (SK-MEL-5; Homo sapiens, SK-MEL-5, 48 h): 1.3 µM
CC50 (SK-MEL-5; Homo sapiens, SK-MEL-5, 48 h): 8.07 µM
TGI (SK-MEL-5; SK-MEL-5, Melanoma, 48 h): 3.24 µM
TGI (A549/ATCC [8]; [15]): 24.3 µM
GI50 (A549/ATCC [8]; Homo sapiens, A549, 48 h): 6.94 µM
CC50 (A549/ATCC [8]; Homo sapiens, A549, 48 h): 69.5 µM
GI50 (IGR-OV1; Homo sapiens, IGROV-1, 48 h): 2 µM
CC50 (IGR-OV1; Homo sapiens, IGROV-1, 48 h): 29.8 µM
TGI (IGR-OV1; IGR-OV1, Ovarian, 48 h): 7.72 µM
GI50 (PC-3 [9]; Homo sapiens): 2.05 µM
CC50 (PC-3 [9]; Homo sapiens, read-out: LC50 (the source's name)): 85.1 µM
TGI (PC-3 [9]): 10.2 µM
GI50 (SF-268 [10]; Homo sapiens, SF-268, 48 h): < 0.01 µM
CC50 (SF-268 [10]; Homo sapiens, SF-268, 48 h): 27.7 µM
TGI (SF-268 [10]; SF-268, CNS, 48 h): 0.24 µM
GI50 (SF-295 [11]; Homo sapiens, SF-295, 48 h): 0.56 µM
CC50 (SF-295 [11]; Homo sapiens, SF-295, 48 h): 57.8 µM
TGI (SF-295 [11]; SF-295, CNS, 48 h): 11.2 µM

CC(=O)C=CSc1nc(N)nc2nc[nH]c12 [trans-AVTG, 6-(2-acetylvinylthio) guanine]
GI50 (MOLT-4; MOLT-4, Leukemia, 48 h): 0.7 µM
TGI (MOLT-4; MOLT-4, Leukemia, 48 h): >100 µM
CC50 (MOLT-4; MOLT-4, Leukemia, 48 h): > 100 µM
GI50 (SNB-19; SNB-19, CNS, 48 h): 18.7 µM
TGI (SNB-19; SNB-19, CNS, 48 h): 50.9 µM
CC50 (SNB-19; SNB-19, CNS, 48 h): > 100 µM
GI50 (HOP-62; [13]): 1.62 µM
TGI (HOP-62; [13]): >100 µM
CC50 (HOP-62; [13]): > 100 µM
GI50 (HOP-92 [7]; [14]): 3.01 µM
TGI (HOP-92 [7]; [14]): 19.4 µM
CC50 (HOP-92 [7]; [14]): 50 µM
GI50 (OVCAR-5; OVCAR-5, Ovarian, 48 h): 0.54 µM
TGI (OVCAR-5; OVCAR-5, Ovarian, 48 h): 6.04 µM
CC50 (OVCAR-5; OVCAR-5, Ovarian, 48 h): 57.7 µM
GI50 (SK-MEL-5; SK-MEL-5, Melanoma, 48 h): 1.68 µM
TGI (SK-MEL-5; SK-MEL-5, Melanoma, 48 h): 8.10 µM
CC50 (SK-MEL-5; SK-MEL-5, Melanoma, 48 h): 41.7 µM
GI50 (A549/ATCC [8]; [15]): 5.75 µM
TGI (A549/ATCC [8]; [15]): 32.8 µM
CC50 (A549/ATCC [8]; [15]): > 100 µM
GI50 (IGR-OV1; IGR-OV1, Ovarian, 48 h): 0.03 µM
TGI (IGR-OV1; IGR-OV1, Ovarian, 48 h): 0.08 µM
CC50 (IGR-OV1; IGR-OV1, Ovarian, 48 h): 7.86 µM
GI50 (PC-3 [9]): 3.96 µM
TGI (PC-3 [9]): 19.7 µM
GI50 (SF-268 [10]; SF-268, CNS, 48 h): < 0.01 µM
TGI (SF-268 [10]; SF-268, CNS, 48 h): 0.43 µM
CC50 (SF-268 [10]; SF-268, CNS, 48 h): 24.4 µM
GI50 (SF-295 [11]; SF-295, CNS, 48 h): 0.43 µM
TGI (SF-295 [11]; SF-295, CNS, 48 h): 0.92 µM
CC50 (SF-295 [11]; SF-295, CNS, 48 h): 82.9 µM
